From patent US20110212199A1, “AGENT FOR TREATING EYE DISEASES” (priority 2003, published 2011)

Columns and labels:
[1] = system: cataract in ultraviolet ray irradiated eyes of mouse; assay: Treatment of cataract (animal experiment), UV-A+UV-B irradiation; format: in vivo
Description: Control group (Control): To eyes of mouse (4 eyes) were irradiated ultraviolet rays UV-A+UV-B (each 0.36J: 100 μW×1 hour) from 10 PM to 11 PM at the first day, the third day, the fifth day each once, and three times in total. Provided that, before 1 minute and after 1 minute of each ultraviolet ray irradiation, 1 drop (50 μl) of PBS (phosphate buffered physiological saline) was administered, and 1 drop of PBS was administered each once at the second day, the fourth day, the sixth day, the seventh day, the eighth day, the ninth day and the tenth day.
Pre-administered group of ultraviolet ray irradiation (Pre 0.1 g/l and Pre 0.01 g/l): To eyes of mouse were irradiated ultraviolet rays UV-A+UV-B (each 0.36J: 100 pW×1 hour) from 10 PM to 11 PM at the first day, the third day, the fifth day each once, and three times in total.
Post-administered group of ultraviolet ray irradiation (Post 0.1 g/l and Post 0.01 g/l): To eyes of mouse were irradiated ultraviolet rays UV-A+UV-B (each 0.36J: 100 μW×1 hour) from 10 PM to 11 PM at the first day, the third day and the fifth day each once, and three times in total.

[2] = system: intraocular pressure of house rabbit; assay: Effects on intraocular pressure (animal experiment); format: in vivo, colored house rabbits
Description: For the experiments, five (10 eyes) colored house rabbits (body weight: 1.8 to 2 kg) with 8 months to 10 months from the birth were used. […] Intraocular pressure of the house rabbit before treating with eye drops/eye washes was 14 mmHg at 1 PM. […] The maximum dropping of the intraocular pressure appeared after 50 minutes from washing. Lowering effects of intraocular pressure continued at least up to after 5 hours from washing. […] This house rabbit was immediately washed again with the same eye drops/eye washes, intraocular pressure was lowered up to 13 mmHg after 45 minutes from washing. The house rabbit subjected to eye drops/eye washes treatment was allowed to stand, and intraocular pressure was measured next day at 9 AM, it was 18 mmHg, and the effects of eye drops/eye washes at the previous day remained. […] The effects of administration can be found to be continued for a long time.

[3] = system: epidemic keratoconjunctivitis; assay: Example 29: epidemic keratoconjunctivitis; format: in vivo, human

C[C@]12CC[C@@H]3c4ccc(O)cc4CC[C@H]3[C@@H]1CC[C@@H]2O [17β-estradiol]
appearance of cataract, pre-administered vs post-administered group ([1]; administered 1 minute before vs after irradiation): less appearance of cataract
occurrence of cataract at the tenth day ([1]; eye drops 0.1 g/l or 0.01 g/l, 1 drop (50 μl), pre- and post-administered groups, vs PBS control): occurrence of cataract had scarcely observed
intraocular pressure ([2]; 25 μl (1 drop) of 100 mg/l at 1 PM, after 3.5 hours, before 14 mmHg): 10 mmHg
time the intraocular pressure effect continued ([2]; after 25 μl drop at 1 PM): ≥ 5 h
time the lowering effect of intraocular pressure continued ([2]; after washing): ≥ 5 h
time of maximum dropping of intraocular pressure ([2]; after washing with 100 mg/l eye washes at 1 PM): 50 min
intraocular pressure ([2]; high-pressure eye, 45 minutes after second washing): 13 mmHg
intraocular pressure ([2]; high-pressure eye, next day 9 AM, before further administration): 18 mmHg
intraocular pressure ([2]; high-pressure eye, second day, 1 hour 50 minutes after third 25 μl drop): 12 mmHg
intraocular pressure ([2]; high-pressure eye, second day, 3 hours 15 minutes after 25 μl drop): 13 mmHg
intraocular pressure ([2]; high-pressure eye, second day, 3 hours 15 minutes after second 25 μl drop): 13 mmHg
intraocular pressure ([2]; high-pressure eye, third day 3:15 PM): 12 mmHg
intraocular pressure ([2]; high-pressure eye, third day 6 PM): 11 mmHg
intraocular pressure ([2]; high-pressure eye, third day 9 AM before administration): 10 mmHg
intraocular pressure ([2]; high-pressure eye, third day noon, 3 hours after 25 μl drop): 9 mmHg
intraocular pressure ([2]; rabbit with one high-pressure eye, 24 mmHg before, 15 minutes after washing at 5 PM): 15 mmHg
eye discharge ([3]; 1 mg/l once a day, fourth day): eye discharge was increased
keratitis superficialis diffusa ([3]; person, 1 mg/l, 1 drop (50 μl) once a day): cured at the fourth day
